Measurements taken from patent US8642770B2, “Indole derivative” (Takeda Pharmaceutical Company Limited, priority 2010, dated 2014).

Row | Compound | melting point [°C]
1 | Cn1c(CNCC(C)(C)O)cc2cc(NC(=O)c3ccc(OC[C@@H]4CCCO4)cc3)ccc21 [Example 19, N-(2-{[(2-hydroxy-2-methylpropyl)amino]methyl}-1-methyl-1H-indol-5-yl)-4-[(2S)-tetrahydrofuran-2-ylmethoxy]benzamide] | 188 to 190
2 | Cc1c(NC(=O)c2ccc(OC[C@@H]3CCCO3)cc2)ccc2cc(CNCC(C)(C)C)[nH]c12 [Example 69, N-(2-{[(2,2-dimethylpropyl)amino]methyl}-7-methyl-1H-indol-6-yl)-4-[(2S)-tetrahydrofuran-2-ylmethoxy]benzamide] | 168
3 | Cn1c(CNCC(C)(C)C)cc2cc(NC(=O)c3ccc(C#CC4(O)CCC4)cc3)ccc21 [Example 30, N-(2-{[(2,2-dimethylpropyl)amino]methyl}-1-methyl-1H-indol-5-yl)-4-[(1-hydroxycyclobutyl)ethynyl]benzamide] | 160 to 161
4 | CCCNCc1cc2c(C)c(NC(=O)c3ccc(OC[C@@H]4CCCO4)cc3)ccc2n1C [Example 57, N-{1,4-dimethyl-2-[(propylamino)methyl]-1H-indol-5-yl}-4-[(2S)-tetrahydrofuran-2-ylmethoxy]benzamide] | 225
5 | Cn1c(CNC[C@H]2CCCO2)cc2cc(NC(=O)c3ccc(OCC4CC4)cc3)ccc21 [Example 10, 4-(cyclopropylmethoxy)-N-[1-methyl-2-({[(2R)-tetrahydrofuran-2-ylmethyl]amino}methyl)-1H-indol-5-yl]benzamide] | 138 to 139
6 | Cc1c(CNCC(C)C)n(C)c2ccc(NC(=O)c3ccc(OC[C@@H]4CCCO4)cc3)cc12 [Example 34, N-(2-{[(2-methylpropyl)amino]methyl}-1,3-dimethyl-1H-indol-5-yl)-4-[(2S)-tetrahydrofuran-2-ylmethoxy]benzamide] | 145 to 146
7 | Cc1c(CNCC(C)C)[nH]c2c(C)c(NC(=O)c3ccc(OC[C@@H]4CCCO4)cc3)ccc12 [Example 96, N-(2-{[(2-methylpropyl)amino]methyl}-3,7-dimethyl-1H-indol-6-yl)-4-[(2S)-tetrahydrofuran-2-ylmethoxy]benzamide] | 118 to 119
8 | Cc1c(NC(=O)c2ccc(OCC3CC3)cc2)ccc2cc(CN3CCC(C)(O)CC3)[nH]c12 [Example 68, 4-(cyclopropylmethoxy)-N-{2-[(4-hydroxy-4-methylpiperidin-1-yl)methyl]-7-methyl-1H-indol-6-yl}benzamide] | 195
9 | Cn1c(CNC2CCC(C)(O)CC2)cc2cc(NC(=O)c3ccc(OC[C@@H]4CCCO4)cc3)ccc21 (stereo partly drawn) [Example 18, N-(2-{[(trans-4-hydroxy-4-methylcyclohexyl)amino]methyl}-1-methyl-1H-indol-5-yl)-4-[(2S)-tetrahydrofuran-2-ylmethoxy]benzamide] | 154
10 | Cc1c(NC(=O)c2ccc(OC[C@@H]3CCCO3)cc2)ccc2c1cc(CN1CCC(C)(O)CC1)n2C [Example 58, N-{2-[(4-hydroxy-4-methylpiperidin-1-yl)methyl]-1,4-dimethyl-1H-indol-5-yl}-4-[(2S)-tetrahydrofuran-2-ylmethoxy]benzamide] | 210
11 | Cn1c(CNCC2(C)COC2)cc2cc(NC(=O)c3ccc(OCC4CC4)cc3)ccc21 [Example 4, 4-(cyclopropylmethoxy)-N-[1-methyl-2-({[(3-methyloxetan-3-yl)methyl]amino}methyl)-1H-indol-5-yl]benzamide] | 154 to 155
12 | Cc1c(NC(=O)c2ccc(OC[C@@H]3CCCO3)cc2)ccc2c1cc(CNCC(C)(C)O)n2C [Example 52, N-(2-{[(2-hydroxy-2-methylpropyl)amino]methyl}-1,4-dimethyl-1H-indol-5-yl)-4-[(2S)-tetrahydrofuran-2-ylmethoxy]benzamide] | 160 to 162
13 | Cc1c(CNCC(C)(C)O)n(C)c2c(C)c(NC(=O)c3ccc(OC[C@@H]4CCCO4)cc3)ccc12 [Example 108, N-(2-{[(2-hydroxy-2-methylpropyl)amino]methyl}-1,3,7-trimethyl-1H-indol-6-yl)-4-[(2S)-tetrahydrofuran-2-ylmethoxy]benzamide] | 186 to 188
14 | Cc1c(NC(=O)c2ccc(OC[C@@H]3CCCO3)cc2)ccc2cc(CN3CCC(C)(O)CC3)n(C)c12 [Example 87, N-{2-[(4-hydroxy-4-methylpiperidin-1-yl)methyl]-1,7-dimethyl-1H-indol-6-yl}-4-[(2S)-tetrahydrofuran-2-ylmethoxy]benzamide] | 140 to 141
15 | Cc1c(CNCC2CCOCC2)[nH]c2ccc(NC(=O)c3ccc(OC[C@@H]4CCCO4)cc3)cc12 [Example 33, N-(3-methyl-2-{[(tetrahydro-2H-pyran-4-ylmethyl)amino]methyl}-1H-indol-5-yl)-4-[(2S)-tetrahydrofuran-2-ylmethoxy]benzamide] | 146 to 147
16 | Cc1c(CNCC(C)(C)C)n(C)c2ccc(NC(=O)c3ccc(OC[C@@H]4CCCO4)cc3)cc12 [Example 37, N-(2-{[(2,2-dimethylpropyl)amino]methyl}-1,3-dimethyl-1H-indol-5-yl)-4-[(2S)-tetrahydrofuran-2-ylmethoxy]benzamide] | 165 to 166

Row | Compound | melting point [°C]
17 | CC(C)CNCc1cc2cc(NC(=O)c3ccc(OCC4CCOC4)cc3)ccc2n1C (centres unmarked) [Example 21, N-(1-methyl-2-{[(2-methylpropyl)amino]methyl}-1H-indol-5-yl)-4-(tetrahydrofuran-3-ylmethoxy)benzamide] | 125 to 126
18 | Cc1c(NC(=O)c2ccc(C#CC3(O)CCC3)cc2)ccc2cc(CNCC(C)(C)C)n(C)c12 [Example 93, N-(2-{[(2,2-dimethylpropyl)amino]methyl}-1,7-dimethyl-1H-indol-6-yl)-4-[(1-hydroxycyclobutyl)ethynyl]benzamide] | 232 to 233
19 | Cn1c(CNCC2CCOC2)cc2cc(NC(=O)c3ccc(OCC4CCOC4)cc3)ccc21 (centres unmarked) [Example 26, N-(1-methyl-2-{[(tetrahydrofuran-3-ylmethyl)amino]methyl}-1H-indol-5-yl)-4-(tetrahydrofuran-3-ylmethoxy)benzamide] | 131 to 133
20 | Cc1c(CNCC2CCOCC2)n(C)c2ccc(NC(=O)c3ccc(OCC4CC4)cc3)cc12 [Example 40, 4-(cyclopropylmethoxy)-N-(1,3-dimethyl-2-{[(tetrahydro-2H-pyran-4-ylmethyl)amino]methyl}-1H-indol-5-yl)benzamide] | 176 to 177
21 | Cc1c(CN[C@H]2CC[C@](C)(O)CC2)n(C)c2c(F)c(NC(=O)c3ccc(OC[C@@H]4CCCO4)cc3)ccc12 [Example 112, N-(7-fluoro-2-{[(trans-4-hydroxy-4-methylcyclohexyl)amino]methyl}-1,3-dimethyl-1H-indol-6-yl)-4-[(2S)-tetrahydrofuran-2-ylmethoxy]benzamide] | 122 to 124
22 | Cc1c(NC(=O)c2ccc(OC[C@@H]3CCCO3)cc2F)ccc2c1cc(CNCC(C)C)n2C [Example 61, N-(1,4-dimethyl-2-{[(2-methylpropyl)amino]methyl}-1H-indol-5-yl)-2-fluoro-4-[(2S)-tetrahydrofuran-2-ylmethoxy]benzamide] | 104 to 105
23 | Cn1c(CNCC(C)(C)O)cc2cc(NC(=O)c3ccc(OCC4CCOC4)cc3)ccc21 (centres unmarked) [Example 25, N-(2-{[(2-hydroxy-2-methylpropyl)amino]methyl}-1-methyl-1H-indol-5-yl)-4-(tetrahydrofuran-3-ylmethoxy)benzamide] | 169
24 | Cc1c(NC(=O)c2ccc(OCC3CC3)cc2)ccc2cc(CNCC(C)C)[nH]c12 [Example 64, 4-(cyclopropylmethoxy)-N-(7-methyl-2-{[(2-methylpropyl)amino]methyl}-1H-indol-6-yl)benzamide] | 176 to 177
25 | Cc1c(CNCC2CCOCC2)n(C)c2ccc(NC(=O)c3ccc(OC[C@@H]4CCCO4)cc3)cc12 [Example 35, N-(1,3-dimethyl-2-{[(tetrahydro-2H-pyran-4-ylmethyl)amino]methyl}-1H-indol-5-yl)-4-[(2S)-tetrahydrofuran-2-ylmethoxy]benzamide] | 185 to 186
26 | Cc1c(CNCC(C)(C)O)n(C)c2c(C)c(NC(=O)c3ccc(OC[C@@H]4CCCO4)cc3F)ccc12 [Example 111, 2-fluoro-N-(2-{[(2-hydroxy-2-methylpropyl)amino]methyl}-1,3,7-trimethyl-1H-indol-6-yl)-4-[(2S)-tetrahydrofuran-2-ylmethoxy]benzamide] | 131 to 132
27 | Cc1c(NC(=O)c2ccc(OC[C@@H]3CCCO3)cc2F)ccc2c1cc(CN[C@H]1CC[C@](C)(O)CC1)n2C [Example 59, 2-fluoro-N-(2-{[(trans-4-hydroxy-4-methylcyclohexyl)amino]methyl}-1,4-dimethyl-1H-indol-5-yl)-4-[(2S)-tetrahydrofuran-2-ylmethoxy]benzamide] | 124
28 | Cc1c(NC(=O)c2ccc(OC[C@@H]3CCCO3)cc2)ccc2[nH]c(CNCC(C)(C)O)cc12 [Example 48, N-(2-{[(2-hydroxy-2-methylpropyl)amino]methyl}-4-methyl-1H-indol-5-yl)-4-[(2S)-tetrahydrofuran-2-ylmethoxy]benzamide] | 169 to 170
29 | Cc1c(CN[C@H]2CC[C@](C)(O)CC2)n(C)c2ccc(NC(=O)c3ccc(OCC4CC4)cc3)cc12 [Example 42, 4-(cyclopropylmethoxy)-N-(2-{[(trans-4-hydroxy-4-methylcyclohexyl)amino]methyl}-1,3-dimethyl-1H-indol-5-yl)benzamide] | 191
30 | Cc1c(CNCC(C)(C)O)n(C)c2ccc(NC(=O)c3ccc(OC[C@@H]4CCCO4)cc3)cc12 [Example 36, N-(2-{[(2-hydroxy-2-methylpropyl)amino]methyl}-1,3-dimethyl-1H-indol-5-yl)-4-[(2S)-tetrahydrofuran-2-ylmethoxy]benzamide] | 145 to 146
31 | Cc1c(NC(=O)c2ccc(OC[C@@H]3CCCO3)cc2)ccc2[nH]c(CNC3CCCC3)cc12 [Example 49, N-{2-[(cyclopentylamino)methyl]-4-methyl-1H-indol-5-yl}-4-[(2S)-tetrahydrofuran-2-ylmethoxy]benzamide] | 191 to 192
32 | CC(C)CNCc1cc2cc(NC(=O)c3ccc(C#CC4(O)CCC4)cc3)ccc2n1C [Example 29, 4-[(1-hydroxycyclobutyl)ethynyl]-N-(2-{[(2-methylpropyl)amino]methyl}-1-methyl-1H-indol-5-yl)benzamide] | 168 to 169
